Measured values taken from US7879887B2, “α-amino acid derivatives and medicaments containing the same as an active ingredient” (Nissan Chemical Industries, Ltd., priority 2006, dated 2011).

Assays:
Type in all cases: biochemical
recombinant human βARK1 = target: T1, recombinant human βARK1 (Homo sapiens, UniProt P25098); experiment: Inhibitory activity against βARK1 (33P phosphorylation of synthetic peptide); details: recombinant human βARK1, 60 minutes at room temperature
T1 construct: made in house; host or cells: Sf-9 insect cells (baculovirus, pBacPAK8)
T1 sequence (P25098 1-689): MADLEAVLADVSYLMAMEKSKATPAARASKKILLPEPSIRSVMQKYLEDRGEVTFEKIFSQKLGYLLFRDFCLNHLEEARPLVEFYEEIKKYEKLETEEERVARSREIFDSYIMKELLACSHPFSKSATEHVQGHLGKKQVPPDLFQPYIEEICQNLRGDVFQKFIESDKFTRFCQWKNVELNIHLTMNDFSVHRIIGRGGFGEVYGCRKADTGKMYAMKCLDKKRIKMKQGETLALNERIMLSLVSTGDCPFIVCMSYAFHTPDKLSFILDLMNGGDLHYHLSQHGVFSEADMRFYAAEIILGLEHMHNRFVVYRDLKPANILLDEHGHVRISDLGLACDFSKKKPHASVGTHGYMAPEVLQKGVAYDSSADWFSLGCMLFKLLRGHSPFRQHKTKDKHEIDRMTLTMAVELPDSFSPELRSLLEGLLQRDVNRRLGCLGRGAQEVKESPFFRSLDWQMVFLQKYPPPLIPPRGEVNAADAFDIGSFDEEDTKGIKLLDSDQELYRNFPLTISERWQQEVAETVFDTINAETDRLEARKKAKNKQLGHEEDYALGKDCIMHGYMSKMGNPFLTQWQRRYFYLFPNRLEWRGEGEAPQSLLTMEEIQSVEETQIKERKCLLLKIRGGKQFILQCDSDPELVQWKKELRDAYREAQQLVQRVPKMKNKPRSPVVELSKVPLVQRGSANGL
Outline: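 Recombinant human βARK1 from baculovirus-infected Sf-9 cells, purified by SP-Sepharose and heparin chromatography. Biotinylated synthetic peptide phosphorylated with [γ-33P]ATP; substrate solution held 1 mmol/L peptide and 80 μmol/L ATP, enzyme solution 19 to 38 nmol/L βARK1, both in Tris-HCl pH 7.5, 7.5 mmol/L MgCl2; final DMSO 4 vol %.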

CDK2/Cyclin E complex = CDK2/Cyclin E complex (Homo sapiens, UniProt P24941); experiment: In vitro kinase assay, CDK2/Cyclin E complex; details: recombinant protein (Upstate); read-out: CDK2/cyclinE IC50
Protocol: (§1) Inhibitory activity against Aurora A, CDK1/Cyclin B complex, CDK2/Cyclin E complex and CDK3/Cyclin E complex were measured by in vitro kinase assay using recombinant proteins.

CDK3/Cyclin E complex = target: T2, CDK3/Cyclin E complex (Homo sapiens, UniProt Q00526); experiment: In vitro kinase assay, CDK3/Cyclin E complex; details: recombinant protein (Upstate); read-out: CDK3/cyclinE IC50
T2 construct: purchased Upstate Inc. 14-487
T2 sequence (Q00526 whole entry): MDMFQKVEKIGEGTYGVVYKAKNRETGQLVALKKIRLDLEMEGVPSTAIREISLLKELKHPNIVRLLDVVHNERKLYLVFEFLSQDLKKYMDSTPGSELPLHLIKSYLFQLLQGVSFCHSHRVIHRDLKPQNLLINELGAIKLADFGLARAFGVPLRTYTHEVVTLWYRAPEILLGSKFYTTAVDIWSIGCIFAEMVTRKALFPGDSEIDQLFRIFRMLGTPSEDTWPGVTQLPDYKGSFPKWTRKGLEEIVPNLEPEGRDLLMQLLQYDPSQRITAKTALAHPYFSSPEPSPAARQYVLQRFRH
T2 sequence (P24864 whole entry partner): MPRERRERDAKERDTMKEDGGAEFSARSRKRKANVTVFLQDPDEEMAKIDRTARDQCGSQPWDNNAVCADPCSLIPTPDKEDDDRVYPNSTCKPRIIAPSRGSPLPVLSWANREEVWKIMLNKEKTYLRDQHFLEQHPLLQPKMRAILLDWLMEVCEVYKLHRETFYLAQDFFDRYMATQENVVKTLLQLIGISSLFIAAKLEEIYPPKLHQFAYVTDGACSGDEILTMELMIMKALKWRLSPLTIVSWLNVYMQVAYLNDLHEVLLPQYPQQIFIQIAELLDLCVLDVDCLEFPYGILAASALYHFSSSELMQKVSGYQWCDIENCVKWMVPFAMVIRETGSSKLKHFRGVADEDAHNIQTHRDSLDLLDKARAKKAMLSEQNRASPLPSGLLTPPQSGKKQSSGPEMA
Protocol: as §1

Row | Compound | IC50 (recombinant human βARK1) [nM] | IC50 (CDK2/Cyclin E complex) [nM] | IC50 (CDK3/Cyclin E complex) [nM]
1 | O=C(CNc1ccc(Cl)c(O)c1)Nc1nc2ccc3[nH]ncc3c2s1 [compound 6] | 4 | 26 | 28
2 | CC(=O)Nc1cc(NCC(=O)Nc2nc3ccc4[nH]ncc4c3s2)ccc1Cl [compound 16] | 8.3 | 37 | 50
3 | CC(C)(Nc1cccc(O)c1)C(=O)Nc1nc2ccc3[nH]ncc3c2s1 [compound 33] | 7.8 | 33 | 33
4 | CC(C)(Nc1ccc(Cl)cc1)C(=O)Nc1nc2ccc3[nH]ncc3c2s1 [compound 35] | 8.8 | 45 | 80
5 | CC(=O)Nc1cc(NC(C)(C)C(=O)Nc2nc3c(C(F)(F)F)cc4[nH]ncc4c3s2)ccc1Cl [compound 53] | 2 | 51 | 45
6 | CNC(=O)c1cc(NC(C)(C)C(=O)Nc2nc3c(C(F)(F)F)cc4[nH]ncc4c3s2)ccc1Cl [compound 55] | 6.3 | 44 | 23
7 | CCNC(=O)c1cc(NC(C)(C)C(=O)Nc2nc3c(C(F)(F)F)cc4[nH]ncc4c3s2)ccc1F [compound 58] | 6.4 | 107 | 47
8 | CCNC(=O)c1cc(NC(C)(C)C(=O)Nc2nc3c(C(F)(F)F)cc4[nH]ncc4c3s2)ccc1Cl [compound 60] | 4.5 | 37 | 16
9 | CC(C)(Nc1ccc(Cl)c(C(=O)NC2CC2)c1)C(=O)Nc1nc2c(C(F)(F)F)cc3[nH]ncc3c2s1 [compound 75] | 8.8 | 131 | 41
10 | CC(=O)Nc1cc(NC(C)(C)C(=O)Nc2nc3c(C(F)(F)F)cc4[nH]ncc4c3s2)ccc1F [compound 81] | 8.3 | 93 | 55
11 | CC(C)(Nc1cccc(S(N)(=O)=O)c1)C(=O)Nc1nc2c(C(F)(F)F)cc3[nH]ncc3c2s1 [compound 82] | 9.3 | 15 | 5.9
12 | CC(C)(Nc1ccc(Cl)c(C(=O)NCC(N)=O)c1)C(=O)Nc1nc2c(C(F)(F)F)cc3[nH]ncc3c2s1 [compound 85] | 9.9 | 2.4 | 0.6
13 | CC(C)(Nc1ccc(Cl)c(O)c1)C(=O)Nc1nc2c(C(F)(F)F)cc3[nH]ncc3c2s1 [compound 95] | 8.7 | 23 | 22
14 | O=C(Nc1nc2ccc3[nH]ncc3c2s1)C1(Nc2ccc(Cl)cc2)CC1 [compound 117] | 3.9 | 19 | 44
15 | CCOC(=O)c1cc(NC2(C(=O)Nc3nc4ccc5[nH]ncc5c4s3)CC2)ccc1Cl [compound 118] | 8.7 | 116 | 169
16 | CC(=O)Nc1cc(NC2(C(=O)Nc3nc4ccc5[nH]ncc5c4s3)CC2)ccc1F [compound 120] | 3.7 | 64 | 105
17 | CCC(=O)Nc1cc(NC2(C(=O)Nc3nc4ccc5[nH]ncc5c4s3)CC2)ccc1F [compound 121] | 4.6 | 110 | 125
18 | CNC(=O)c1cc(NC2(C(=O)Nc3nc4ccc5[nH]ncc5c4s3)CC2)ccc1Cl [compound 126] | 7.5 | 39 | 38
19 | CC(=O)Nc1cc(NC(C)(C)C(=O)Nc2nc3ccc4[nH]ncc4c3s2)ccc1Cl [compound 128] | 2.8 | 28 | 61
20 | CCC(=O)Nc1cc(NC(C)(C)C(=O)Nc2nc3ccc4[nH]ncc4c3s2)ccc1Cl [compound 129] | 3.9 | 86 | 103
21 | O=C(Nc1nc2ccc3[nH]ncc3c2s1)C(CO)Nc1ccc(Cl)cc1 (stereo not drawn) [compound 132] | 7.7 | 20 | 29
22 | CC(C)(Nc1ccc(Cl)c(C(N)=O)c1)C(=O)Nc1nc2c(C(F)(F)F)cc3[nH]ncc3c2s1 [compound 135] | 3.2 | 52 | 23
23 | CC(C)(Nc1ccc(Cl)c(C(=O)NCCCC(=O)O)c1)C(=O)Nc1nc2c(C(F)(F)F)cc3[nH]ncc3c2s1 [compound 144] | 7.7 | 249 | 180
